Source: ChEMBL document CHEMBL3046513, “Synthesis, characterization, and biological evaluation of some N-aryl hydrazones and their 2,3-disubstituted-4-thiazolidinone derivatives” (Med Chem Res, 2013)
≈ marks a conversion by molar mass, not a printed value. Calls of active or inactive are those of the source. The rule behind the calls is not given here.

These molecules were tested on Rattus norvegicus (assay: Anti-inflammatory activity in Rattus norvegicus (rat) assessed as decrease in carrageenan-induced paw edema at 100 mg/kg, po administered 30 min prior to carrageenan challenge measured after 120 min (reference value: 2.375 +/- 0.1436 mm)). Details: not given.
Type: functional
Molecule COc1ccc(Br)c(C(=O)NN2C(=O)CSC2c2ccccc2OC)c1 (stereo unspecified) has an Activity of 1.95 mm.
With COc1ccc(Br)c(C(=O)NN2C(=O)CSC2c2ccc(O)c(OC)c2)c1 (stereo unspecified) the Activity was 1.77 mm.
COc1ccc(Br)c(C(=O)NN2C(=O)CSC2c2ccc(Cl)cc2)c1 (stereo unspecified) showed an Activity of 2.25 mm.

These molecules were tested on Radical scavenging activity (assay: Antioxidant activity assessed as inhibition of DPPH radical generation at 400 ug/mL after 20 min by spectrophotometric analysis relative to control). Details: not given.
Type: functional
COc1ccc(Br)c(C(=O)NN2C(=O)CSC2c2ccc(Cl)cc2)c1 (stereo unspecified) was tested, and the inhibition was 58.2%.

What follows are molecules tested on Staphylococcus aureus (assay: Antibacterial activity against Staphylococcus aureus ATCC 25923 assessed as growth inhibition by serial plate dilution method). Details: not given.
Type: functional
Molecule COc1ccc(Br)c(C(=O)N/N=C\c2ccccc2)c1 has an MIC of 12.5 µg/mL (≈ 37.5 µM).
COc1ccc(Br)c(C(=O)NN2C(=O)CSC2c2ccccc2OC)c1 (stereo unspecified) was tested, and the MIC was 6.25 µg/mL (≈ 14.3 µM).
COc1ccc(Br)c(C(=O)NN2C(=O)CSC2c2ccc(O)c(OC)c2)c1 (stereo unspecified) showed an MIC of 6.25 µg/mL (≈ 13.8 µM).
COc1ccc(Br)c(C(=O)NN2C(=O)CSC2c2ccc(Cl)cc2)c1 (stereo unspecified) showed an MIC of 12.5 µg/mL (≈ 28.3 µM).

The molecules below were run on Candida albicans (assay: Antifungal activity against Candida albicans assessed as growth inhibition by serial plate dilution method). Details: not given.
Type: functional
COc1ccc(Br)c(C(=O)N/N=C\c2ccccc2)c1 showed an MIC of 1.56 µg/mL (≈ 4.69 µM).
With COc1ccc(Br)c(C(=O)NN2C(=O)CSC2c2ccccc2OC)c1 (stereo unspecified) the MIC was 6.25 µg/mL (≈ 14.3 µM).
For COc1ccc(Br)c(C(=O)NN2C(=O)CSC2c2ccc(O)c(OC)c2)c1 (stereo unspecified), the MIC was 12.5 µg/mL (≈ 27.6 µM).
In the case of COc1ccc(Br)c(C(=O)NN2C(=O)CSC2c2ccc(Cl)cc2)c1 (stereo unspecified), the MIC is reported as 12.5 µg/mL (≈ 28.3 µM).

These molecules were tested on Mus musculus (assay: Acute toxicity in Mus musculus Swiss albino (mouse) assessed as behavioral changes at 500 to 2500 mg/kg, po after 4 to 24 hr). Details: in vivo.
Type: organism-based
Design: route oral
In the case of COc1ccc(Br)c(C(=O)N/N=C\c2ccccc2)c1, the Activity is reported as “Non-toxic”.

What follows are molecules tested on Candida albicans (assay: Ratio of fluconazole MIC to compound MIC for Candida albicans). Details: not given.
Type: functional
COc1ccc(Br)c(C(=O)N/N=C\c2ccccc2)c1 gave a Ratio of 5.

The molecules below were run on Mus musculus (assay: Acute toxicity in Mus musculus Swiss albino (mouse) assessed as mortality at 500 to 2500 mg/kg, po after 4 to 24 hr). Details: in vivo.
Type: organism-based
Design: route oral
In the case of COc1ccc(Br)c(C(=O)N/N=C\c2ccccc2)c1, the Activity is reported as “Non-toxic”.

These molecules were tested on Rattus norvegicus (assay: Anti-inflammatory activity in Rattus norvegicus (rat) assessed as decrease in carrageenan-induced paw edema at 100 mg/kg, po administered 30 min prior to carrageenan challenge measured after 60 min (reference value: 2.175 +/- 0.1797 mm)). Details: not given.
Type: functional
With COc1ccc(Br)c(C(=O)NN2C(=O)CSC2c2ccccc2OC)c1 (stereo unspecified) the Activity was 1.825 mm.
COc1ccc(Br)c(C(=O)NN2C(=O)CSC2c2ccc(O)c(OC)c2)c1 (stereo unspecified) showed an Activity of 1.528 mm.
With COc1ccc(Br)c(C(=O)NN2C(=O)CSC2c2ccc(Cl)cc2)c1 (stereo unspecified) the Activity was 2.15 mm.

These molecules were tested on Mus musculus (assay: Analgesic activity in Mus musculus […] albino (mouse) assessed as time taken to tail withdrawl at 100 mg/kg, po administered through intragastric tube after 120 min by tail flick test (reference value: 1.363 +/- 0.1297 secs)). Details: not given.
Type: functional
Molecule COc1ccc(Br)c(C(=O)NN2C(=O)CSC2c2ccccc2OC)c1 (stereo unspecified) has a Time of 2.075 s.
For COc1ccc(Br)c(C(=O)NN2C(=O)CSC2c2ccc(O)c(OC)c2)c1 (stereo unspecified), the Time was 3.334 s.
With COc1ccc(Br)c(C(=O)NN2C(=O)CSC2c2ccc(Cl)cc2)c1 (stereo unspecified) the Time was 2.788 s.

What follows are molecules tested on Pseudomonas aeruginosa (assay: Antibacterial activity against Pseudomonas aeruginosa ATCC 27853 assessed as growth inhibition by serial plate dilution method). Details: not given.
Type: functional
COc1ccc(Br)c(C(=O)N/N=C\c2ccccc2)c1 showed an MIC of 12.5 µg/mL (≈ 37.5 µM).
For COc1ccc(Br)c(C(=O)NN2C(=O)CSC2c2ccccc2OC)c1 (stereo unspecified), the MIC was 6.25 µg/mL (≈ 14.3 µM).
Work on COc1ccc(Br)c(C(=O)NN2C(=O)CSC2c2ccc(O)c(OC)c2)c1 (stereo unspecified) yielded an MIC of 6.25 µg/mL (≈ 13.8 µM).
COc1ccc(Br)c(C(=O)NN2C(=O)CSC2c2ccc(Cl)cc2)c1 (stereo unspecified) gave an MIC of 3.12 µg/mL (≈ 7.07 µM).

Each molecule was assayed on Mus musculus (assay: Analgesic activity in Mus musculus […] albino (mouse) assessed as time taken to tail withdrawl at 100 mg/kg, po administered through intragastric tube after 180 min by tail flick test (reference value: 1.363 +/- 0.1297 secs)). Details: not given.
Type: functional
COc1ccc(Br)c(C(=O)NN2C(=O)CSC2c2ccccc2OC)c1 (stereo unspecified) showed a Time of 2.238 s.
COc1ccc(Br)c(C(=O)NN2C(=O)CSC2c2ccc(O)c(OC)c2)c1 (stereo unspecified) gave a Time of 2.841 s.
COc1ccc(Br)c(C(=O)NN2C(=O)CSC2c2ccc(Cl)cc2)c1 (stereo unspecified) showed a Time of 2.463 s.

Each molecule was assayed on Radical scavenging activity (assay: Antioxidant activity assessed as inhibition of DPPH radical generation at 200 to 800 ug/mL after 20 min by spectrophotometric analysis). Details: not given.
Type: functional
With COc1ccc(Br)c(C(=O)NN2C(=O)CSC2c2ccccc2OC)c1 (stereo unspecified) the inhibition was “inactive”.
In the case of COc1ccc(Br)c(C(=O)NN2C(=O)CSC2c2ccc(O)c(OC)c2)c1 (stereo unspecified), the inhibition is reported as “inactive”.

What follows are molecules tested on Radical scavenging activity (assay: Antioxidant activity assessed as inhibition of DPPH radical generation at 800 ug/mL after 20 min by spectrophotometric analysis relative to control). Details: not given.
Type: functional
For COc1ccc(Br)c(C(=O)NN2C(=O)CSC2c2ccc(Cl)cc2)c1 (stereo unspecified), the inhibition was 58.2%.

The molecules below were run on Radical scavenging activity (assay: Antioxidant activity assessed as inhibition of DPPH radical generation at 200 ug/mL after 20 min by spectrophotometric analysis relative to control). Details: not given.
Type: functional
With COc1ccc(Br)c(C(=O)NN2C(=O)CSC2c2ccc(Cl)cc2)c1 (stereo unspecified) the inhibition was 57.5%.

The molecules below were run on Escherichia coli (assay: Antibacterial activity against Escherichia coli ATCC 25922 assessed as growth inhibition by serial plate dilution method). Details: not given.
Type: functional
COc1ccc(Br)c(C(=O)N/N=C\c2ccccc2)c1 showed an MIC of 12.5 µg/mL (≈ 37.5 µM).
COc1ccc(Br)c(C(=O)NN2C(=O)CSC2c2ccccc2OC)c1 (stereo unspecified) showed an MIC of 12.5 µg/mL (≈ 28.6 µM).
COc1ccc(Br)c(C(=O)NN2C(=O)CSC2c2ccc(O)c(OC)c2)c1 (stereo unspecified) gave an MIC of 12.5 µg/mL (≈ 27.6 µM).
COc1ccc(Br)c(C(=O)NN2C(=O)CSC2c2ccc(Cl)cc2)c1 (stereo unspecified) showed an MIC of 12.5 µg/mL (≈ 28.3 µM).

Each molecule was assayed on Bacillus cereus (assay: Antibacterial activity against Bacillus cereus assessed as growth inhibition by serial plate dilution method). Details: not given.
Type: functional
For COc1ccc(Br)c(C(=O)N/N=C\c2ccccc2)c1, the MIC was 12.5 µg/mL (≈ 37.5 µM).
With COc1ccc(Br)c(C(=O)NN2C(=O)CSC2c2ccccc2OC)c1 (stereo unspecified) the MIC was 6.25 µg/mL (≈ 14.3 µM).
In the case of COc1ccc(Br)c(C(=O)NN2C(=O)CSC2c2ccc(O)c(OC)c2)c1 (stereo unspecified), the MIC is reported as 6.25 µg/mL (≈ 13.8 µM).
COc1ccc(Br)c(C(=O)NN2C(=O)CSC2c2ccc(Cl)cc2)c1 (stereo unspecified) was tested, and the MIC was 12.5 µg/mL (≈ 28.3 µM).

These molecules were tested on Rattus norvegicus (assay: Anti-inflammatory activity in Rattus norvegicus (rat) assessed as decrease in carrageenan-induced paw edema at 100 mg/kg, po administered 30 min prior to carrageenan challenge measured after 180 min (reference value: 2.275 +/- 0.1181 mm)). Details: not given.
Type: functional
With COc1ccc(Br)c(C(=O)NN2C(=O)CSC2c2ccccc2OC)c1 (stereo unspecified) the Activity was 2.075 mm.
COc1ccc(Br)c(C(=O)NN2C(=O)CSC2c2ccc(O)c(OC)c2)c1 (stereo unspecified) gave an Activity of 1.78 mm.
Work on COc1ccc(Br)c(C(=O)NN2C(=O)CSC2c2ccc(Cl)cc2)c1 (stereo unspecified) yielded an Activity of 2.25 mm.

The molecules below were run on Mus musculus (assay: Analgesic activity in Mus musculus […] albino (mouse) assessed as time taken to tail withdrawl at 100 mg/kg, po administered through intragastric tube after 60 min by tail flick test (reference value: 1.363 +/- 0.1297 secs)). Details: not given.
Type: functional
Work on COc1ccc(Br)c(C(=O)NN2C(=O)CSC2c2ccccc2OC)c1 (stereo unspecified) yielded a Time of 2.175 s.
In the case of COc1ccc(Br)c(C(=O)NN2C(=O)CSC2c2ccc(O)c(OC)c2)c1 (stereo unspecified), the Time is reported as 3.468 s.
COc1ccc(Br)c(C(=O)NN2C(=O)CSC2c2ccc(Cl)cc2)c1 (stereo unspecified) was tested, and the Time was 2.613 s.
